Experimental data reported in the NIST ThermoML archive (doi:10.1016/j.jct.2017.03.006).

Assay: xn = mol fraction of the nth substance listed
Conditions: Liquid; for mass density: Vibrating tube method; for viscosity: Concentric cylinders viscometry

Cc1ccc(C)c(C)c1 [1,2,4-trimethylbenzene] + CCCCO
Conditions | mass density [kg/m3] | viscosity [mPa·s]
273.15 K, 100 kPa, x2 = 0 | 891.7 | –
273.15 K, 100 kPa, x2 = 0.1005 | 886.7 | –
273.15 K, 100 kPa, x2 = 0.2261 | 880.3 | –
273.15 K, 100 kPa, x2 = 0.2999 | 876.4 | –
273.15 K, 100 kPa, x2 = 0.3966 | 870.8 | –
273.15 K, 100 kPa, x2 = 0.5289 | 862.9 | –
273.15 K, 100 kPa, x2 = 0.6367 | 855.6 | –
273.15 K, 100 kPa, x2 = 0.7249 | 849.2 | –
273.15 K, 100 kPa, x2 = 0.9131 | 833.3 | –
273.15 K, 1000 kPa, x2 = 0 | 892.3 | –
273.15 K, 1000 kPa, x2 = 0.1005 | 887.1 | –
273.15 K, 1000 kPa, x2 = 0.2261 | 880.5 | –
273.15 K, 1000 kPa, x2 = 0.2999 | 876.7 | –
273.15 K, 1000 kPa, x2 = 0.3966 | 871.1 | –
273.15 K, 1000 kPa, x2 = 0.5289 | 863.2 | –
273.15 K, 1000 kPa, x2 = 0.6367 | 855.9 | –
273.15 K, 1000 kPa, x2 = 0.7249 | 849.5 | –
273.15 K, 1000 kPa, x2 = 0.7977 | 843.7 | –
273.15 K, 1000 kPa, x2 = 0.9131 | 833.7 | –
273.15 K, 5000 kPa, x2 = 0 | 894.6 | –
273.15 K, 5000 kPa, x2 = 0.1005 | 889.5 | –
273.15 K, 5000 kPa, x2 = 0.2261 | 883 | –
273.15 K, 5000 kPa, x2 = 0.2999 | 879.2 | –
273.15 K, 5000 kPa, x2 = 0.3966 | 873.6 | –
273.15 K, 5000 kPa, x2 = 0.5289 | 865.7 | –
273.15 K, 5000 kPa, x2 = 0.6367 | 858.5 | –
273.15 K, 5000 kPa, x2 = 0.7249 | 852.1 | –
273.15 K, 5000 kPa, x2 = 0.7977 | 846.3 | –
273.15 K, 5000 kPa, x2 = 0.9131 | 836.3 | –
273.15 K, 10000 kPa, x2 = 0 | 897.4 | –
273.15 K, 10000 kPa, x2 = 0.1005 | 892.4 | –
273.15 K, 10000 kPa, x2 = 0.2261 | 885.9 | –
273.15 K, 10000 kPa, x2 = 0.2999 | 882.1 | –
273.15 K, 10000 kPa, x2 = 0.3966 | 876.6 | –
273.15 K, 10000 kPa, x2 = 0.5289 | 868.8 | –
273.15 K, 10000 kPa, x2 = 0.6367 | 861.5 | –
273.15 K, 10000 kPa, x2 = 0.7249 | 855.2 | –
273.15 K, 10000 kPa, x2 = 0.7977 | 849.4 | –
273.15 K, 10000 kPa, x2 = 0.9131 | 839.4 | –
273.15 K, 20000 kPa, x2 = 0 | 902.8 | –
273.15 K, 20000 kPa, x2 = 0.1005 | 897.9 | –
273.15 K, 20000 kPa, x2 = 0.2261 | 891.4 | –
273.15 K, 20000 kPa, x2 = 0.2999 | 887.7 | –
273.15 K, 20000 kPa, x2 = 0.3966 | 882.2 | –
273.15 K, 20000 kPa, x2 = 0.5289 | 874.4 | –
273.15 K, 20000 kPa, x2 = 0.6367 | 867.2 | –
273.15 K, 20000 kPa, x2 = 0.7249 | 860.8 | –
273.15 K, 20000 kPa, x2 = 0.7977 | 855.2 | –
273.15 K, 20000 kPa, x2 = 0.9131 | 845.3 | –
273.15 K, 30000 kPa, x2 = 0 | 908 | –
273.15 K, 30000 kPa, x2 = 0.1005 | 903.1 | –
273.15 K, 30000 kPa, x2 = 0.2261 | 896.7 | –
273.15 K, 30000 kPa, x2 = 0.2999 | 893 | –
273.15 K, 30000 kPa, x2 = 0.3966 | 887.5 | –
273.15 K, 30000 kPa, x2 = 0.5289 | 879.7 | –
273.15 K, 30000 kPa, x2 = 0.6367 | 872.6 | –
273.15 K, 30000 kPa, x2 = 0.7249 | 866.3 | –
273.15 K, 30000 kPa, x2 = 0.7977 | 860.6 | –
273.15 K, 30000 kPa, x2 = 0.9131 | 850.8 | –
273.15 K, 40000 kPa, x2 = 0 | 912.9 | –
273.15 K, 40000 kPa, x2 = 0.1005 | 908 | –
273.15 K, 40000 kPa, x2 = 0.2261 | 901.7 | –
273.15 K, 40000 kPa, x2 = 0.2999 | 897.9 | –
273.15 K, 40000 kPa, x2 = 0.3966 | 892.5 | –
273.15 K, 40000 kPa, x2 = 0.5289 | 884.8 | –
273.15 K, 40000 kPa, x2 = 0.6367 | 877.7 | –
273.15 K, 40000 kPa, x2 = 0.7249 | 871.4 | –
273.15 K, 40000 kPa, x2 = 0.7977 | 865.8 | –
273.15 K, 40000 kPa, x2 = 0.9131 | 856 | –
273.15 K, 50000 kPa, x2 = 0 | 917.5 | –
273.15 K, 50000 kPa, x2 = 0.1005 | 912.6 | –
273.15 K, 50000 kPa, x2 = 0.2261 | 906.3 | –
273.15 K, 50000 kPa, x2 = 0.2999 | 902.7 | –
273.15 K, 50000 kPa, x2 = 0.3966 | 897.3 | –
273.15 K, 50000 kPa, x2 = 0.5289 | 889.6 | –
273.15 K, 50000 kPa, x2 = 0.6367 | 882.5 | –
273.15 K, 50000 kPa, x2 = 0.7249 | 876.2 | –
273.15 K, 50000 kPa, x2 = 0.7977 | 870.6 | –
273.15 K, 50000 kPa, x2 = 0.9131 | 860.9 | –
273.15 K, 60000 kPa, x2 = 0 | 921.9 | –
273.15 K, 60000 kPa, x2 = 0.1005 | 917.1 | –
273.15 K, 60000 kPa, x2 = 0.2261 | 910.9 | –
273.15 K, 60000 kPa, x2 = 0.2999 | 907.2 | –
273.15 K, 60000 kPa, x2 = 0.3966 | 901.8 | –
273.15 K, 60000 kPa, x2 = 0.5289 | 894.1 | –
273.15 K, 60000 kPa, x2 = 0.6367 | 887 | –
273.15 K, 60000 kPa, x2 = 0.7249 | 880.8 | –
273.15 K, 60000 kPa, x2 = 0.7977 | 875.2 | –
273.15 K, 60000 kPa, x2 = 0.9131 | 865.5 | –
273.15 K, 70000 kPa, x2 = 0 | 926.2 | –
273.15 K, 70000 kPa, x2 = 0.1005 | 921.4 | –
273.15 K, 70000 kPa, x2 = 0.2261 | 915.1 | –
273.15 K, 70000 kPa, x2 = 0.2999 | 911.4 | –
273.15 K, 70000 kPa, x2 = 0.3966 | 906.1 | –
273.15 K, 70000 kPa, x2 = 0.5289 | 898.5 | –
273.15 K, 70000 kPa, x2 = 0.6367 | 891.4 | –
273.15 K, 70000 kPa, x2 = 0.7249 | 885.2 | –
273.15 K, 70000 kPa, x2 = 0.7977 | 879.7 | –
273.15 K, 70000 kPa, x2 = 0.9131 | 870.1 | –
273.15 K, 80000 kPa, x2 = 0 | 930.3 | –
273.15 K, 80000 kPa, x2 = 0.1005 | 925.5 | –
273.15 K, 80000 kPa, x2 = 0.2261 | 919.3 | –
273.15 K, 80000 kPa, x2 = 0.2999 | 915.6 | –
273.15 K, 80000 kPa, x2 = 0.3966 | 910.3 | –
273.15 K, 80000 kPa, x2 = 0.5289 | 902.7 | –
273.15 K, 80000 kPa, x2 = 0.6367 | 895.7 | –
273.15 K, 80000 kPa, x2 = 0.7249 | 889.5 | –
273.15 K, 80000 kPa, x2 = 0.7977 | 883.9 | –
273.15 K, 80000 kPa, x2 = 0.9131 | 874.3 | –
273.15 K, 90000 kPa, x2 = 0 | 934.2 | –
273.15 K, 90000 kPa, x2 = 0.1005 | 929.4 | –
273.15 K, 90000 kPa, x2 = 0.2261 | 923.2 | –
273.15 K, 90000 kPa, x2 = 0.2999 | 919.6 | –
273.15 K, 90000 kPa, x2 = 0.3966 | 914.3 | –
273.15 K, 90000 kPa, x2 = 0.5289 | 906.7 | –
273.15 K, 90000 kPa, x2 = 0.6367 | 899.7 | –
273.15 K, 90000 kPa, x2 = 0.7249 | 893.6 | –
273.15 K, 90000 kPa, x2 = 0.7977 | 888 | –
273.15 K, 90000 kPa, x2 = 0.9131 | 878.4 | –
273.15 K, 100000 kPa, x2 = 0 | 938 | –
273.15 K, 100000 kPa, x2 = 0.1005 | 933.3 | –
273.15 K, 100000 kPa, x2 = 0.2261 | 927.1 | –
273.15 K, 100000 kPa, x2 = 0.2999 | 923.4 | –
273.15 K, 100000 kPa, x2 = 0.3966 | 918.2 | –
273.15 K, 100000 kPa, x2 = 0.5289 | 910.6 | –
273.15 K, 100000 kPa, x2 = 0.6367 | 903.6 | –
273.15 K, 100000 kPa, x2 = 0.7249 | 897.5 | –
273.15 K, 100000 kPa, x2 = 0.7977 | 891.9 | –
273.15 K, 100000 kPa, x2 = 0.9131 | 882.3 | –
273.15 K, 120000 kPa, x2 = 0 | 945.2 | –
273.15 K, 120000 kPa, x2 = 0.1005 | 940.6 | –
273.15 K, 120000 kPa, x2 = 0.2261 | 934.5 | –
273.15 K, 120000 kPa, x2 = 0.2999 | 930.8 | –
273.15 K, 120000 kPa, x2 = 0.3966 | 925.6 | –
273.15 K, 120000 kPa, x2 = 0.5289 | 918 | –
273.15 K, 120000 kPa, x2 = 0.6367 | 911.1 | –
273.15 K, 120000 kPa, x2 = 0.7249 | 905 | –
273.15 K, 120000 kPa, x2 = 0.7977 | 899.4 | –
273.15 K, 120000 kPa, x2 = 0.9131 | 889.9 | –
273.15 K, 140000 kPa, x2 = 0 | 952 | –
273.15 K, 140000 kPa, x2 = 0.1005 | 947.3 | –
273.15 K, 140000 kPa, x2 = 0.2261 | 941.3 | –
273.15 K, 140000 kPa, x2 = 0.2999 | 937.7 | –
273.15 K, 140000 kPa, x2 = 0.3966 | 932.5 | –
273.15 K, 140000 kPa, x2 = 0.5289 | 924.9 | –
273.15 K, 140000 kPa, x2 = 0.6367 | 918 | –
273.15 K, 140000 kPa, x2 = 0.7249 | 911.9 | –
273.15 K, 140000 kPa, x2 = 0.7977 | 906.4 | –
273.15 K, 140000 kPa, x2 = 0.9131 | 896.8 | –
293.15 K, 100 kPa, x2 = 0 | 875.1 | 0.888
293.15 K, 100 kPa, x2 = 0.1002 | – | 0.898
293.15 K, 100 kPa, x2 = 0.1005 | 870.2 | –
293.15 K, 100 kPa, x2 = 0.2261 | 863.7 | –
293.15 K, 100 kPa, x2 = 0.2327 | – | 0.949
293.15 K, 100 kPa, x2 = 0.3 | – | 1.001
293.15 K, 100 kPa, x2 = 0.3969 | – | 1.087
293.15 K, 100 kPa, x2 = 0.637 | – | 1.483
293.15 K, 100 kPa, x2 = 0.7975 | – | 1.975
293.15 K, 100 kPa, x2 = 0.9131 | – | 2.464
